Measured values taken from ChEMBL document CHEMBL4825702, “5-Aminonaphthalene derivatives as selective nonnucleoside nuclear receptor binding SET domain-protein 2 (NSD2) inhibitors for the treatment of multiple myeloma” (Eur J Med Chem, 2021).

Experiments:
[1] = target: T1, Histone-lysine N-methyltransferase NSD2 (Homo sapiens, UniProt O96028); assay: Inhibition of recombinant human N-terminal GST-tagged NSD2 CD (941 to 1240 residues) expressed in Escherichia coli using SAM as substrate in presence of nucleosomes by AlphaLISA method
T1 sequence (O96028 whole entry): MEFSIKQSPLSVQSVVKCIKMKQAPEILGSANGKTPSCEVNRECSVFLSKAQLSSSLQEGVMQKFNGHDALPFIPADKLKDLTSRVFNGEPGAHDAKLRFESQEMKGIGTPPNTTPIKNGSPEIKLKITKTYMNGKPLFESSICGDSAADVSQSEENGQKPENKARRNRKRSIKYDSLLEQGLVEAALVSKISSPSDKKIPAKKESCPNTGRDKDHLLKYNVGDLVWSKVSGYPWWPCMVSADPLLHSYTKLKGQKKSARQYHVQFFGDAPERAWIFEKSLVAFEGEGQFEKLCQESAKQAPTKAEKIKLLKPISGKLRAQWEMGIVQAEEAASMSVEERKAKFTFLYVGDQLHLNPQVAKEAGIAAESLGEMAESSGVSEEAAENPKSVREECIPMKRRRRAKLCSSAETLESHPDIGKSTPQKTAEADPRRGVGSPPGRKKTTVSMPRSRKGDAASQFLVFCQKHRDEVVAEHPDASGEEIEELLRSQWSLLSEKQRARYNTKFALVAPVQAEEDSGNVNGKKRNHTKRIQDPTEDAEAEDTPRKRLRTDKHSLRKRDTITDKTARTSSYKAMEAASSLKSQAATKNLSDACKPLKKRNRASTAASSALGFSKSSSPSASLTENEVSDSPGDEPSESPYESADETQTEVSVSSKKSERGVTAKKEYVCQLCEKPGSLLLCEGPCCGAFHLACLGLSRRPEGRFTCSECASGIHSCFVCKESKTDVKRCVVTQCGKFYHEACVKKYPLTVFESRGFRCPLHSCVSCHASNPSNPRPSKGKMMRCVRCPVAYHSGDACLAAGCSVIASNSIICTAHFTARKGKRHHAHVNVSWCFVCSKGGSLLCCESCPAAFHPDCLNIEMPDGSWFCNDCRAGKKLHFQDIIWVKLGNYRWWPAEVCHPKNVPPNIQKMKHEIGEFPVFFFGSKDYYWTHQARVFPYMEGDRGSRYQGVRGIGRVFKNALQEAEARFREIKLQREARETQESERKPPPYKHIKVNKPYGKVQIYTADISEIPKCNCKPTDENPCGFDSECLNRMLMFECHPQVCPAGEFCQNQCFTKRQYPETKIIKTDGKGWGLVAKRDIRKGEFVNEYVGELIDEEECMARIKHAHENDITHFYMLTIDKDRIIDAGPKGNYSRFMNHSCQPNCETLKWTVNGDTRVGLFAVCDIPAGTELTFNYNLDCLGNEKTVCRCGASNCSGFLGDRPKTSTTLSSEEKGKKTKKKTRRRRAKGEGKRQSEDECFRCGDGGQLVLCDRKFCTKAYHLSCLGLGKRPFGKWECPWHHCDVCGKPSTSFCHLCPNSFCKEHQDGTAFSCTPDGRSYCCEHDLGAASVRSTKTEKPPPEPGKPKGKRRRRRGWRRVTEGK

[2] = target: T1, Histone-lysine N-methyltransferase NSD2; assay: Inhibition of NSD2 (unknown origin)
[3] = target: Histone-lysine N-methyltransferase, H3 lysine-36 specific (Homo sapiens, UniProt Q96L73); assay: Inhibition of human NSD1-SET using histone H3.1 as substrate incubated for 1 hr by Western blot analysis
[4] = target: Histone-lysine N-methyltransferase NSD3 (Homo sapiens, UniProt Q9BZ95); assay: Inhibition of human NSD3-SET using histone H3.1 as substrate incubated for 1 hr by Western blot analysis
[5] = target: T1, Histone-lysine N-methyltransferase NSD2; assay: Inhibition of human NSD2-SET using histone H3.1 as substrate incubated for 1 hr by Western blot analysis
[6] = target: T1, Histone-lysine N-methyltransferase NSD2; assay: Binding affinity to MMSET (973 to 1203 residues) (unknown origin) expressed in Escherichia coli BL21 DE3 by ITC analysis
[7] = target: T1, Histone-lysine N-methyltransferase NSD2; assay: Inhibition of NSD2 (953 to 1240 residues) (unknown origin) using SAM as substrate in presence of nucleosome by AlphaScreen assay

Sequence of Histone-lysine N-methyltransferase, H3 lysine-36 specific (Q96L73 whole entry): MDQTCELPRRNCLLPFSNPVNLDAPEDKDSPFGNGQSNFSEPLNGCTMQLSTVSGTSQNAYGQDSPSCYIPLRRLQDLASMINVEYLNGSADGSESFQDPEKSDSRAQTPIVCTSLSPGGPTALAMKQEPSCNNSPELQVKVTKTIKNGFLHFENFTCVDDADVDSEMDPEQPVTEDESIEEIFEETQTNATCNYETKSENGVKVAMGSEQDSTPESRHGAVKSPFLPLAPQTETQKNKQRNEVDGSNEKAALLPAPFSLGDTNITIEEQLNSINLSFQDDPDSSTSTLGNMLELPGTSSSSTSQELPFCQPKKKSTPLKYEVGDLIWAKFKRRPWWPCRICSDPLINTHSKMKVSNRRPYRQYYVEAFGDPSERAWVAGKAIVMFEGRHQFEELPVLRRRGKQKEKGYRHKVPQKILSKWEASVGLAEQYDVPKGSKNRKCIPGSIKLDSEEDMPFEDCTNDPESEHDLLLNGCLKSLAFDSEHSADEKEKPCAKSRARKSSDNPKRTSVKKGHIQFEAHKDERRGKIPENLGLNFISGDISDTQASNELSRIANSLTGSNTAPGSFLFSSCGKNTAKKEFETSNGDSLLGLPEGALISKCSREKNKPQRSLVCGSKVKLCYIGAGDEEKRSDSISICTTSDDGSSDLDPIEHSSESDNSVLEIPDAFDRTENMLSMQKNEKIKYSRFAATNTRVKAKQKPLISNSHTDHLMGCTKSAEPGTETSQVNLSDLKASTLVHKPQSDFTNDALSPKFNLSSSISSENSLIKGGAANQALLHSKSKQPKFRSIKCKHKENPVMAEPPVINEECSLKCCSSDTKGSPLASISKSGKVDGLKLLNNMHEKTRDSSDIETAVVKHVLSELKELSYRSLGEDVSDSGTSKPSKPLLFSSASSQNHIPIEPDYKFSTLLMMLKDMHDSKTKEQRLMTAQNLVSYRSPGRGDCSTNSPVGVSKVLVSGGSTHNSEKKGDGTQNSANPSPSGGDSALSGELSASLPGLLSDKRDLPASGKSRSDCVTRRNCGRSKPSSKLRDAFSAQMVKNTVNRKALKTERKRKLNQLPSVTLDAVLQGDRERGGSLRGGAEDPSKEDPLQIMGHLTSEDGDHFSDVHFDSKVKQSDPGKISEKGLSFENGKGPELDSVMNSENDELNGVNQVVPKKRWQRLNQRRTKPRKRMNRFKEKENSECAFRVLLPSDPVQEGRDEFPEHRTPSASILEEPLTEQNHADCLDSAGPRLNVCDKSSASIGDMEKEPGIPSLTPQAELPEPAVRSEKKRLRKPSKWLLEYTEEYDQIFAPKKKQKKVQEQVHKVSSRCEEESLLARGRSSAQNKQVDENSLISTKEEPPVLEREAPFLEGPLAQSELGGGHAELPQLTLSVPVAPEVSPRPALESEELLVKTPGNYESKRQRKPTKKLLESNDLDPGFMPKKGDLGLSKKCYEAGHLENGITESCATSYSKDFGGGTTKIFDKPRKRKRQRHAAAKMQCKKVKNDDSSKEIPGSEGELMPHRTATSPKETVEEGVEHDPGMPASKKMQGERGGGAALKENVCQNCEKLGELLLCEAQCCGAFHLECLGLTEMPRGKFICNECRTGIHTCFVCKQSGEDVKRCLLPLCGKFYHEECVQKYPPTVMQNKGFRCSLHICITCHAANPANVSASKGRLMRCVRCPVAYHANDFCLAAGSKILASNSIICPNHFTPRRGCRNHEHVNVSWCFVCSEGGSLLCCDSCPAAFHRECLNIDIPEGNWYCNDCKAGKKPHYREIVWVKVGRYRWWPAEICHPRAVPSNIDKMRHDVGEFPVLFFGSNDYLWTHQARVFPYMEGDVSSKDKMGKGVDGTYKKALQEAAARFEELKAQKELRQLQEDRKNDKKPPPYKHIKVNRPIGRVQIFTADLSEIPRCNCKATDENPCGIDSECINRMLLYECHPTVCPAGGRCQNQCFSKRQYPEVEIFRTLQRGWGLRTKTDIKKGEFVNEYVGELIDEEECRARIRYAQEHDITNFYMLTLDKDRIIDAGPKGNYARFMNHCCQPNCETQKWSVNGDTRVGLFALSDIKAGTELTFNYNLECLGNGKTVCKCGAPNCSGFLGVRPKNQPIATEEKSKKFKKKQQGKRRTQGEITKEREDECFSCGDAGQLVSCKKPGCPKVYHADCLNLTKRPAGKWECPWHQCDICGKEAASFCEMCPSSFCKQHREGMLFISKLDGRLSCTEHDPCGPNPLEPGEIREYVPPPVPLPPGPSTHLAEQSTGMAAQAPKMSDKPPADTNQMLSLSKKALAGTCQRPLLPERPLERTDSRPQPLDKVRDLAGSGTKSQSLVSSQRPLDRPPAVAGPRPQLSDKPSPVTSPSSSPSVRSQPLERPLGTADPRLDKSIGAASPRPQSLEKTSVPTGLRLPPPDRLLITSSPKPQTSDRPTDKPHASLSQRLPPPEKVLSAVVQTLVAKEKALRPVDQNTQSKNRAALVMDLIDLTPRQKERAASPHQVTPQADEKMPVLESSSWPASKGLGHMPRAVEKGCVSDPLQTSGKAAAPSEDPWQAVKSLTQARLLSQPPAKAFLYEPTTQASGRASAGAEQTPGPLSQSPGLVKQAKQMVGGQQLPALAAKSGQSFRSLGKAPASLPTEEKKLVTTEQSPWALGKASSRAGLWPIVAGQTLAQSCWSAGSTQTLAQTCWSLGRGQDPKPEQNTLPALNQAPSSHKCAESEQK
Sequence of Histone-lysine N-methyltransferase NSD3 (Q9BZ95 whole entry): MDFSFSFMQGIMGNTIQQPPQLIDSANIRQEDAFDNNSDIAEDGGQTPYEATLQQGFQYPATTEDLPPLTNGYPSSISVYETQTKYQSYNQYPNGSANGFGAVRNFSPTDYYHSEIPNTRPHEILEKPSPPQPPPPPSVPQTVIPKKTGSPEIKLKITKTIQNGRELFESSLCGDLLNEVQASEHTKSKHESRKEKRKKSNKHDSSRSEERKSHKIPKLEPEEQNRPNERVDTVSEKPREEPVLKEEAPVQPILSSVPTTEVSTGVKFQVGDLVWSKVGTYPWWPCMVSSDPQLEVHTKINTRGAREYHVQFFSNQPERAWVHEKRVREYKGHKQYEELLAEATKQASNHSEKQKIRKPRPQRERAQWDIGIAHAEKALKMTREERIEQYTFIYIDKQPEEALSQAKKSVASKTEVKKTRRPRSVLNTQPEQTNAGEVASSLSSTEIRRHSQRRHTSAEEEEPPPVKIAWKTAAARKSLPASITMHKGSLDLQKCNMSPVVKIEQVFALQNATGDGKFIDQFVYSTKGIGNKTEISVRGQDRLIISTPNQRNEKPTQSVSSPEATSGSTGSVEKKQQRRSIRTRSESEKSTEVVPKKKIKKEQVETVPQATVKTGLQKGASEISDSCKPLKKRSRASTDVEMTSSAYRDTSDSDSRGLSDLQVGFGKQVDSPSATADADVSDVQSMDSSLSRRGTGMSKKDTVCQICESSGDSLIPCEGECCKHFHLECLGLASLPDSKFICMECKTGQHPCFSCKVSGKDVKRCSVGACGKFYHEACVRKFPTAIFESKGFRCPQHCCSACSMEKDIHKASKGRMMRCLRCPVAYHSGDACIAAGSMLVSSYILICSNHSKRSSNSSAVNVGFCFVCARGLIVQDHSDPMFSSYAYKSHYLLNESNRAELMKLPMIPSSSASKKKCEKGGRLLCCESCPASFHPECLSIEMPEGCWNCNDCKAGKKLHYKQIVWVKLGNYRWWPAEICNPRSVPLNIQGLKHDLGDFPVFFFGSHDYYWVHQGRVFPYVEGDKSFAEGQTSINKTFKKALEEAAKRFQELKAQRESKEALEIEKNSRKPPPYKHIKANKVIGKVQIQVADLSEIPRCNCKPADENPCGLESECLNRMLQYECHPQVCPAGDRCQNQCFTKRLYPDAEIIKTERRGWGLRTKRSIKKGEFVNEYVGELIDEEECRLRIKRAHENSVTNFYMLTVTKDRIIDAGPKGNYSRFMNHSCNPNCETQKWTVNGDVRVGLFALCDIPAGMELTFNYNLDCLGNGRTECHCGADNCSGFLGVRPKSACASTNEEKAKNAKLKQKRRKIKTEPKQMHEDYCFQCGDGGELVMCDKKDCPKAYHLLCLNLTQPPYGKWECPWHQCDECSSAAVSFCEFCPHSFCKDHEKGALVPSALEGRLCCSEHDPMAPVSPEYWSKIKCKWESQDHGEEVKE

O=S(=O)(NCc1ccccc1)c1cccc2c(NC3CCCCC3)cccc12
IC50 [1]: 12.6 µM

Nc1cccc2c(S(=O)(=O)NCc3ccc(C(F)(F)F)cc3)cccc12
IC50 [1]: 10.4 µM

Nc1cccc2cc(S(=O)(=O)NCc3ccccc3)ccc12
IC50 [1]: > 20 µM

Nc1ccc2c(S(=O)(=O)NCc3ccccc3)cccc2c1
IC50 [1]: > 20 µM

Nc1cccc2c(S(=O)(=O)NC3CC3c3ccccc3)cccc12 (trans isomer)
IC50 [1]: 19.9 µM

Nc1cccc2c(S(=O)(=O)NCc3ccncc3)cccc12
IC50 [1]: 26 µM

Nc1cccc2c(C(=O)NCc3ccccc3)cccc12
IC50 [1]: 19.4 µM

O=C1O[C@@H](C(=O)N2CCN(Cc3nc4sc5c(c4c(=O)[nH]3)CCCC5)CC2)Cc2ccccc21
IC50 [2]: 11.2 µM

O=C(NCc1ccccc1)c1cccc2[nH]ccc12
IC50 [1]: > 20 µM

NNc1nc2ccccc2nc1S
IC50 [2]: 3 µM

O=C(c1ccccc1)N1CCC(Nc2cccc3c(S(=O)(=O)NCc4ccccc4)cccc23)CC1
IC50 [1]: 18 µM

CC(=O)N1CCC(Nc2cccc3c(S(=O)(=O)NCc4ccccc4)cccc23)CC1
IC50 [1]: 7.5 µM

Nc1cccc2c(S(=O)(=O)NCC3CCCNC3)cccc12 (centres undefined)
IC50 [1]: > 20 µM

Nc1cccc2c(S(=O)(=O)NCc3ccc(F)cc3)cccc12
IC50 [1]: 14.1 µM

Nc1ncnc2c1ncn2[C@@H]1O[C@H](CC(N)CC[C@H](N)C(=O)O)[C@@H](O)[C@H]1O (some centres undefined)
IC50 [2]: 26 µM

Nc1ccc2cc(S(=O)(=O)NCc3ccccc3)ccc2c1
IC50 [1]: > 20 µM

Nc1cccc2c(S(=O)(=O)NCCc3ccccc3)cccc12
IC50 [1]: 15.4 µM

CN1CCC(CNS(=O)(=O)c2cccc3c(N)cccc23)CC1
IC50 [1]: 3.4 µM

Nc1cccc2c(S(=O)(=O)NCc3ccc(C(=O)O)cc3)cccc12
IC50 [1]: > 20 µM

COc1cc2nc(N3CCN(C)CC3)nc(NC3CCN(Cc4ccccc4)CC3)c2cc1OC
IC50 [3]: 112 µM
IC50 [4]: 95 µM
IC50 [5]: 41 µM

O=S(=O)(NCc1ccccc1)c1cccc2ccccc12
IC50 [1]: > 20 µM

CC(=O)Nc1cccc2c(S(=O)(=O)NCc3ccccc3)cccc12
IC50 [1]: > 20 µM

CCN1CCC(Nc2cccc3c(S(=O)(=O)NCc4ccccc4)cccc23)CC1
IC50 [1]: 3.2 µM

CN(Cc1ccccc1)S(=O)(=O)c1cccc2c(N)cccc12
IC50 [1]: > 20 µM

Nc1cccc2c(S(=O)(=O)Nc3ccccc3)cccc12
IC50 [1]: > 20 µM

Nc1cccc2c(S(=O)(=O)NCc3cccs3)cccc12
IC50 [1]: 22.7 µM

COc1ccc(CNS(=O)(=O)c2cccc3c(N)cccc23)cc1
IC50 [1]: 13.5 µM

CC(C)(C)NS(=O)(=O)c1cccc2c(N)cccc12
IC50 [1]: 18.4 µM

Nc1cccc2c(S(=O)(=O)N3CCC(Cc4ccccc4)CC3)cccc12
IC50 [1]: > 20 µM

Nc1cccc2c(S(=O)(=O)NCC3CCCCC3)cccc12
IC50 [1]: > 20 µM

O=C(OCc1ccccc1)N1CCC(Nc2cccc3c(S(=O)(=O)NCc4ccccc4)cccc23)CC1
IC50 [1]: > 20 µM

CN(C)c1cccc2c(S(=O)(=O)NCc3ccccc3)cccc12
IC50 [1]: > 20 µM

CS(=O)(=O)N1CCC(Nc2cccc3c(S(=O)(=O)NCc4ccccc4)cccc23)CC1
IC50 [1]: 11.8 µM

O=S(=O)(NCc1ccccc1)c1cccc2c(NC3CCNCC3)cccc12
IC50 [1]: 10.2 µM

CCC(C)NC(CC[C@H](N)C(=O)O)C[C@H]1O[C@@H](n2cnc3c(N)ncnc32)[C@H](O)[C@@H]1O (some centres undefined)
Kd [6]: 1.6 µM
IC50 [7]: 3.3 µM

CN1CCC(Nc2cccc3c(S(=O)(=O)NCc4ccccc4)cccc23)CC1
IC50 [1]: 6 µM

N#Cc1ccc(CNS(=O)(=O)c2cccc3c(N)cccc23)cc1
IC50 [1]: 18.1 µM

Nc1ccc(S(=O)(=O)NCc2ccccc2)c2ccccc12
IC50 [1]: > 20 µM

O=C(NCc1ccccc1)c1cccc2ncccc12
IC50 [1]: 19.6 µM

O=S(=O)(NCc1ccccc1)c1cccc2c(NCC3CC3)cccc12
IC50 [1]: 10.7 µM

N#Cc1cccc(CNS(=O)(=O)c2cccc3c(N)cccc23)c1
IC50 [1]: > 20 µM
